According to ChEMBL document CHEMBL4819142, “Synthesis of propargylamine mycophenolate analogues and their selective cytotoxic activity towards neuroblastoma SH-SY5Y cell line” (Bioorg Med Chem Lett, 2021):

Experiments:
FaDu = experiment: Cytotoxicity against human FaDu cells assessed as growth inhibition measured by SRB assay; type: functional, cell-based
SH-SY5Y = experiment: Cytotoxicity against human SH-SY5Y cells assessed as growth inhibition measured by SRB assay; type: functional, cell-based
HT-29 = experiment: Cytotoxicity against human HT-29 cells assessed as growth inhibition measured by SRB assay; type: functional, cell-based
[1] = Cytotoxicity against human KKUM213 cells assessed as growth inhibition measured by SRB assay; type: functional, cell-based; settings: KKU-M213
A549 = experiment: Cytotoxicity against human A549 cells assessed as growth inhibition measured by SRB assay; type: functional, cell-based
[2] = Cytotoxicity against human […] cells assessed as growth inhibition measured by SRB assay; type: cell-based
MDA-MB-231 = experiment: Cytotoxicity against human MDA-MB-231 cells assessed as growth inhibition measured by SRB assay; type: functional, cell-based

COC(=O)CC/C(C)=C/Cc1c(O)c2c(c(C)c1OC)COC2=O
IC50 (FaDu): 6.15 µM
IC50 (SH-SY5Y): 0.26 µM
IC50 (HT-29): 23.7 µM
IC50 [1]: 7.45 µM
IC50 (A549): 0.82 µM
IC50 [2]: 5.82 µM
IC50 (MDA-MB-231): 9.62 µM

COC(=O)CC/C(C)=C/Cc1c(OC)c(C)c2c(c1OCC#CCN1CCN(C(c3ccccc3)c3ccccc3)CC1)C(=O)OC2
IC50 (FaDu): > 50 µM
IC50 (SH-SY5Y): 23.7 µM
IC50 (HT-29): > 50 µM
IC50 [1]: > 50 µM
IC50 (A549): 32.7 µM
IC50 [2]: > 50 µM
IC50 (MDA-MB-231): > 50 µM

COC(=O)CC/C(C)=C/Cc1c(OC)c(C)c2c(c1OCC#CCN1CCN(c3ccccc3OC)CC1)C(=O)OC2
IC50 (FaDu): > 50 µM
IC50 (SH-SY5Y): 43.6 µM
IC50 (HT-29): > 50 µM
IC50 [1]: > 50 µM
IC50 (A549): > 50 µM
IC50 [2]: > 50 µM
IC50 (MDA-MB-231): > 50 µM

COC(=O)CC/C(C)=C/Cc1c(OC)c(C)c2c(c1OCC#CCN1CCN(c3ccccc3F)CC1)C(=O)OC2
IC50 (FaDu): > 50 µM
IC50 (SH-SY5Y): 35.8 µM
IC50 (HT-29): > 50 µM
IC50 [1]: > 50 µM
IC50 (A549): 45.3 µM
IC50 [2]: > 50 µM
IC50 (MDA-MB-231): > 50 µM

C#CCOc1c(C/C=C(\C)CCC(=O)OC)c(OC)c(C)c2c1C(=O)OC2
IC50 (FaDu): 15.2 µM
IC50 (SH-SY5Y): 3.07 µM
IC50 (HT-29): 28.8 µM
IC50 [1]: 35.7 µM
IC50 (A549): 31.8 µM
IC50 [2]: 25.2 µM
IC50 (MDA-MB-231): 49.2 µM

COC(=O)CC/C(C)=C/Cc1c(OC)c(C)c2c(c1OCC#CCN1CCN(C(c3ccccc3)c3ccc(Cl)cc3)CC1)C(=O)OC2 (centres undefined)
IC50 (FaDu): > 50 µM
IC50 (SH-SY5Y): 9.9 µM
IC50 (HT-29): > 50 µM
IC50 [1]: > 50 µM
IC50 (A549): 29.1 µM
IC50 [2]: > 50 µM
IC50 (MDA-MB-231): > 50 µM

COC(=O)CC/C(C)=C/Cc1c(OC)c(C)c2c(c1OCC#CCN1CCN(C(c3ccc(F)cc3)c3ccc(F)cc3)CC1)C(=O)OC2
IC50 (FaDu): > 50 µM
IC50 (SH-SY5Y): 25.8 µM
IC50 (HT-29): > 50 µM
IC50 [1]: > 50 µM
IC50 (A549): 34.1 µM
IC50 [2]: > 50 µM
IC50 (MDA-MB-231): > 50 µM

COC(=O)CC/C(C)=C/Cc1c(OC)c(C)c2c(c1OCC#CCN1CCC(C(=O)OC)CC1)C(=O)OC2
IC50 (FaDu): > 50 µM
IC50 (SH-SY5Y): 41.2 µM
IC50 (HT-29): > 50 µM
IC50 [1]: > 50 µM
IC50 (A549): 40.5 µM
IC50 [2]: > 50 µM
IC50 (MDA-MB-231): > 50 µM

COC(=O)CC/C(C)=C/Cc1c(OC)c(C)c2c(c1OCC#CCN1CCN(c3ccc(O)cc3)CC1)C(=O)OC2
IC50 (FaDu): > 50 µM
IC50 (SH-SY5Y): 46.1 µM
IC50 (HT-29): > 50 µM
IC50 [1]: > 50 µM
IC50 (A549): > 50 µM
IC50 [2]: > 50 µM
IC50 (MDA-MB-231): > 50 µM

COC(=O)CC/C(C)=C/Cc1c(OC)c(C)c2c(c1OCC#CCN1CCC(Cc3ccccc3)CC1)C(=O)OC2
IC50 (FaDu): > 50 µM
IC50 (SH-SY5Y): 24.5 µM
IC50 (HT-29): > 50 µM
IC50 [1]: > 50 µM
IC50 (A549): 40.7 µM
IC50 [2]: > 50 µM
IC50 (MDA-MB-231): > 50 µM

COC(=O)CC/C(C)=C/Cc1c(OC)c(C)c2c(c1OCC#CCN1CCN(C(=O)C3COc4ccccc4O3)CC1)C(=O)OC2 (centres undefined)
IC50 (FaDu): > 50 µM
IC50 (SH-SY5Y): > 50 µM
IC50 (HT-29): > 50 µM
IC50 [1]: > 50 µM
IC50 (A549): > 50 µM
IC50 [2]: > 50 µM
IC50 (MDA-MB-231): > 50 µM

COC(=O)CC/C(C)=C/Cc1c(OC)c(C)c2c(c1OCC#CCN1CCC(C(=O)O)CC1)C(=O)OC2
IC50 (FaDu): > 50 µM
IC50 (SH-SY5Y): 47.2 µM
IC50 (HT-29): > 50 µM
IC50 [1]: > 50 µM
IC50 (A549): > 50 µM
IC50 [2]: > 50 µM
IC50 (MDA-MB-231): > 50 µM

COC(=O)CC/C(C)=C/Cc1c(OC)c(C)c2c(c1OCC#CCN1CCN(C(C)=O)CC1)C(=O)OC2
IC50 (FaDu): > 50 µM
IC50 (SH-SY5Y): > 50 µM
IC50 (HT-29): > 50 µM
IC50 [1]: > 50 µM
IC50 (A549): > 50 µM
IC50 [2]: > 50 µM
IC50 (MDA-MB-231): > 50 µM

COC(=O)CC/C(C)=C/Cc1c(OC)c(C)c2c(c1OCC#CCN1CCN(c3ncccn3)CC1)C(=O)OC2
IC50 (FaDu): > 50 µM
IC50 (SH-SY5Y): > 50 µM
IC50 (HT-29): > 50 µM
IC50 [1]: > 50 µM
IC50 (A549): > 50 µM
IC50 [2]: > 50 µM
IC50 (MDA-MB-231): > 50 µM

COC(=O)CC/C(C)=C/Cc1c(OC)c(C)c2c(c1OCC#CCN1CCN(c3ccccc3)CC1)C(=O)OC2
IC50 (FaDu): > 50 µM
IC50 (SH-SY5Y): 9.14 µM
IC50 (HT-29): > 50 µM
IC50 [1]: > 50 µM
IC50 (A549): 22 µM
IC50 [2]: > 50 µM
IC50 (MDA-MB-231): > 50 µM

COC(=O)CC/C(C)=C/Cc1c(OC)c(C)c2c(c1OCC#CCN1CCN(Cc3ccc(Cl)cc3)CC1)C(=O)OC2
IC50 (FaDu): > 50 µM
IC50 (SH-SY5Y): 31.2 µM
IC50 (HT-29): > 50 µM
IC50 [1]: > 50 µM
IC50 (A549): > 50 µM
IC50 [2]: > 50 µM
IC50 (MDA-MB-231): > 50 µM

C=CCN(CC#CCOc1c(C/C=C(\C)CCC(=O)OC)c(OC)c(C)c2c1C(=O)OC2)CC=C
IC50 (FaDu): > 50 µM
IC50 (SH-SY5Y): 36.4 µM
IC50 (HT-29): > 50 µM
IC50 [1]: > 50 µM
IC50 (A549): 43.5 µM
IC50 [2]: 36.4 µM
IC50 (MDA-MB-231): > 50 µM

COC(=O)CC/C(C)=C/Cc1c(OC)c(C)c2c(c1OCC#CCN1CCN(CCO)CC1)C(=O)OC2
IC50 (FaDu): > 50 µM
IC50 (SH-SY5Y): 35.7 µM
IC50 (HT-29): > 50 µM
IC50 [1]: > 50 µM
IC50 (A549): > 50 µM
IC50 [2]: > 50 µM
IC50 (MDA-MB-231): > 50 µM

COC(=O)CC/C(C)=C/Cc1c(OC)c(C)c2c(c1OCC#CCN1CCN(Cc3ccc4c(c3)OCO4)CC1)C(=O)OC2
IC50 (FaDu): > 50 µM
IC50 (SH-SY5Y): 34.8 µM
IC50 (HT-29): > 50 µM
IC50 [1]: > 50 µM
IC50 (A549): 45.5 µM
IC50 [2]: > 50 µM
IC50 (MDA-MB-231): > 50 µM

COC(=O)CC/C(C)=C/Cc1c(OC)c(C)c2c(c1OCC#CCN1CCN(c3ccc(C)cc3)CC1)C(=O)OC2
IC50 (FaDu): > 50 µM
IC50 (SH-SY5Y): 37.7 µM
IC50 (HT-29): > 50 µM
IC50 [1]: > 50 µM
IC50 (A549): > 50 µM
IC50 [2]: > 50 µM
IC50 (MDA-MB-231): > 50 µM

COC(=O)CC/C(C)=C/Cc1c(OC)c(C)c2c(c1OCC#CCN1CCOCC1)C(=O)OC2
IC50 (FaDu): > 50 µM
IC50 (SH-SY5Y): > 50 µM
IC50 (HT-29): > 50 µM
IC50 [1]: > 50 µM
IC50 (A549): > 50 µM
IC50 [2]: > 50 µM
IC50 (MDA-MB-231): > 50 µM

COC(=O)CC/C(C)=C/Cc1c(OC)c(C)c2c(c1OCC#CCN1CCCC1)C(=O)OC2
IC50 (FaDu): > 50 µM
IC50 (SH-SY5Y): 31.1 µM
IC50 (HT-29): 46.5 µM
IC50 [1]: > 50 µM
IC50 (A549): 35.9 µM
IC50 [2]: > 50 µM
IC50 (MDA-MB-231): > 50 µM

CCCCNc1ccc(CC#CCOc2c(C/C=C(\C)CCC(=O)OC)c(OC)c(C)c3c2C(=O)OC3)cc1
IC50 (FaDu): 21.2 µM
IC50 (SH-SY5Y): 5.96 µM
IC50 (HT-29): 36.7 µM
IC50 [1]: 22.9 µM
IC50 (A549): 6.97 µM
IC50 [2]: 18.3 µM
IC50 (MDA-MB-231): 19.8 µM

CCCCN(CC#CCOc1c(C/C=C(\C)CCC(=O)OC)c(OC)c(C)c2c1C(=O)OC2)CCCC
IC50 (FaDu): 30.9 µM
IC50 (SH-SY5Y): 21.5 µM
IC50 (HT-29): > 50 µM
IC50 [1]: 38.2 µM
IC50 (A549): 30.6 µM
IC50 [2]: 36 µM
IC50 (MDA-MB-231): 39.8 µM

COC(=O)CC/C(C)=C/Cc1c(OC)c(C)c2c(c1OCC#CCN1CCC(c3ccccc3)c3ccccc31)C(=O)OC2 (centres undefined)
IC50 (FaDu): 24.6 µM
IC50 (SH-SY5Y): 6.45 µM
IC50 (HT-29): 39.5 µM
IC50 [1]: 25.9 µM
IC50 (A549): 7.68 µM
IC50 [2]: 23.3 µM
IC50 (MDA-MB-231): 28.7 µM

COC(=O)CC/C(C)=C/Cc1c(OC)c(C)c2c(c1OCC#CCN1CCN(c3ccc(C#N)cc3)CC1)C(=O)OC2
IC50 (FaDu): > 50 µM
IC50 (SH-SY5Y): 37.8 µM
IC50 (HT-29): > 50 µM
IC50 [1]: > 50 µM
IC50 (A549): > 50 µM
IC50 [2]: > 50 µM
IC50 (MDA-MB-231): > 50 µM

COC(=O)CC/C(C)=C/Cc1c(OC)c(C)c2c(c1OCC#CCN1CCCc3ccccc31)C(=O)OC2
IC50 (FaDu): > 50 µM
IC50 (SH-SY5Y): 9.57 µM
IC50 (HT-29): > 50 µM
IC50 [1]: > 50 µM
IC50 (A549): 18 µM
IC50 [2]: > 50 µM
IC50 (MDA-MB-231): > 50 µM
